Where two headings read alike, the source gives them in different places.
Key:
[1] = tested on: flare and wheal suppression; conditions: children aged 6–11 years; cited from earlier work
[2] = tested on: porcine liver esterase (PLE); assay: Hydrolysis of prodrug in porcine liver esterase (PLE); format: in vitro ADME; conditions: for first-order rate constant (kobs): during 6 h; for half-life at 0.25 mg/mL (LCZ 2HCl Eq.): pig, porcine liver esterase (PLE) solution, 10% DMSO, 37 °C, read-out: T1/2 (time required for 50% degradation of prodrug) (converted)
Protocol: The ester bond cleavage assay was adapted from reference, with minor modifications, and carried out using PLE to evaluate the hydrolytic ratio (n = 3). […] At 0, 1, 2, 4, 6 and 24 h, the aliquot (100 μL) was collected using a 28 G syringe, and then immediately diluted 10-fold with a solvent composed of Acetonitrile:DW = 90:10 (v/v) to stop enzymatic action. The elution was replenished with an equal concentration and volume of fresh esterase solution. The diluted samples were filtered through a double 0.45 μm PTFE syringe filter. The filtrates were analyzed for their prodrug and LCZ content by HPLC to determine the conversion of the prodrug to LCZ.
(§1) Esterase, plasma hydrolysis and chemical stability studies were performed using the HPLC method. The HPLC equipment used was Infinity 1260 (Agilent, CA) fitted with a quaternary pump, an autosampler, a UV detector set at a wavelength of 230 nm and a column compartment maintained at 20 °C. The sample was eluted from a Fortis C18 (150 × 4.6 mm, 5 μm particle size) (Fortis, Neston, UK) analytical column using Acetonitrile:distilled water:sulfuric acid (90:9.6:0.4, v/v). The mobile phase was pumped isocratically at a flow rate of 1 mL/min with a 20 μL injection volume.

[3] = Hydrolysis of prodrugs in rat plasma; format: in vitro ADME; conditions: 37 °C, during 6 h
Protocol: First, 100 μL of stock solution was added to 3.9 mL of heparinized rat plasma (n = 3). The samples were incubated at 37 °C in a shaking chamber (100 rpm). At 0, 1, 2, 4, 6 and 24 h, the aliquot (100 μL) was collected, and then immediately diluted 10-fold with a solvent composed of Acetonitrile:DW = 90:10 (v/v) to precipitate the protein. An equal volume of fresh rat plasma was replenished after each sampling. The samples were centrifuged at 5000 rpm for 10 min and the supernatants were filtered through a double 0.45 μm PTFE syringe filter. The filtrates were analyzed for their prodrug and LCZ content by HPLC to determine the conversion of the prodrug to LCZ.
as §1

first-order rate constant (kobs) ([2]; PLE 0.2 units/mL) [h⁻¹] | first-order rate constant (kobs) ([2]; PLE 0.5 units/mL) [h⁻¹] | first-order rate constant (kobs) ([2]; PLE 2.0 units/mL) [h⁻¹] | half-life at 0.25 mg/mL (LCZ 2HCl Eq.) ([2]; PLE 0.2 unit/mL) [min] | half-life at 0.25 mg/mL (LCZ 2HCl Eq.) ([2]; PLE 0.5 unit/mL) [min] | half-life at 0.25 mg/mL (LCZ 2HCl Eq.) ([2]; PLE 2.0 unit/mL) [min] | Compound | EC50 for flare suppression [1] [ng/mL] | EC50 for wheal suppression [1] [ng/mL] | first-order rate constant (kobs) [3] [h⁻¹]
 |  |  |  |  |  | O=C(O)COCCN1CCN([C@H](c2ccccc2)c2ccc(Cl)cc2)CC1 [LCZ, Levocetirizine] | 1.4 ± 0.1 | 16.1 ± 2.2 | 
0.201 | 0.253 | 0.580 | 240 | 180 | ~60 | CCCCCCCCCCOC(=O)COCCN1CCN([C@@H](c2ccccc2)c2ccc(Cl)cc2)CC1 [LCZ-D, Levocetirizine decanoate] |  |  | 0.229
0.127 | 0.165 | 0.498 | 300 | 240 | ~120 | CCCCCCCCCCCCOC(=O)COCCN1CCN([C@@H](c2ccccc2)c2ccc(Cl)cc2)CC1 [LCZ-L, Levocetirizine laurate] |  |  | 0.157

— publication PMC12299168 (Pharmaceutics, 2025)
